In patent US8933113B2 (Merck Sharp & Dohme Corp., priority 2011, dated 2015):

biological target: T1, full-length human Mineralocorticoid Receptor (MR) (Homo sapiens, UniProt P08235); assay: human MR NH Pro assay (PathHunter Protein:Protein interaction assay), MR antagonist activity; format: cell-based; details: PathHunter CHO-K1 cells overexpressing human MR; aldosterone about 0.3 nM; 6 hours at 37° C.; luminescence; read-out: Primary Assay IP rating (IP = inflection point for a given dose-response titration curve)
T1 construct: host or cells: PathHunter CHO-K1 cells
T1 sequence (P08235 1-984): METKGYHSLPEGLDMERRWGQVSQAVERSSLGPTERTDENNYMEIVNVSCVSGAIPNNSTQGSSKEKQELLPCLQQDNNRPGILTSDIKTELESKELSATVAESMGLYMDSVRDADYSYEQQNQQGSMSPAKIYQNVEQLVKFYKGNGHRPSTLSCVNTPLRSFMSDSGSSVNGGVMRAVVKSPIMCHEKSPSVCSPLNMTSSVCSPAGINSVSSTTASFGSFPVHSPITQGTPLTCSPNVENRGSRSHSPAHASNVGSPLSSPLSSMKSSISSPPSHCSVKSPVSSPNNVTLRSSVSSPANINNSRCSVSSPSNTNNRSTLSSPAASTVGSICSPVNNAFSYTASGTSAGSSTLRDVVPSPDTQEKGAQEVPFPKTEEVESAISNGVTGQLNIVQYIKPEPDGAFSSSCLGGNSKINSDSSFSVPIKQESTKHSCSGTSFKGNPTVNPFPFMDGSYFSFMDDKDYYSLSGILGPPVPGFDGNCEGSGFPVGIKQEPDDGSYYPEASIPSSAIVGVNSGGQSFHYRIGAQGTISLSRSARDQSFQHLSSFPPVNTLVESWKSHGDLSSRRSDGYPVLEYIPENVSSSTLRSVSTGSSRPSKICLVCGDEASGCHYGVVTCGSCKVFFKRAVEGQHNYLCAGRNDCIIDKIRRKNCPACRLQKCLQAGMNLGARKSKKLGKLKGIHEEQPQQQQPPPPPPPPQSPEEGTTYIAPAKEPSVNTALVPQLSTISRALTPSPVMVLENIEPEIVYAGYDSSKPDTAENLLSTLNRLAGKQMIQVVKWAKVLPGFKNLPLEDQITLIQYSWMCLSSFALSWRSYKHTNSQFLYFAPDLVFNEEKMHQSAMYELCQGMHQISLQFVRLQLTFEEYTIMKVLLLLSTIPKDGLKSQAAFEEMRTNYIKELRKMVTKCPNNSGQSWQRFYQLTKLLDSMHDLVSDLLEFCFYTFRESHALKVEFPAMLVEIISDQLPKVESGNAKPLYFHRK
From the text: The activity of the compounds of the present invention regarding mineralocorticoid receptor antagonism can be evaluated using the following assay.
Assessment of MR Potency in HMR NH Pro Assay
The human MR NH Pro assay is a commercially available PathHunter™ Protein:Protein interaction assay (DiscoveRx; http://www.discoverx.com/nhrs/prod-nhrs.php) that measures the ability of compounds to antagonize full-length human Mineralocorticoid Receptor (MR) binding to a coactivator peptide.
6. Test compounds are titrated starting at 4.4 mM, 10-point titration in 1:3 dilution.
3. Add 5 μL 6× agonist (final aldosterone concentration should be about 0.3 nM to about 1.0 nM) to all wells (using the PlateMate Plus.)
• (ThermoFisher) (except those wells in columns 23 and 24) 4. Add 5 uL of assay media to all wells in column 23 and 24. 5. Incubate 6 hrs at 37° C., 5% CO2. 6. Add 15 uL 3× DiscoveRx detection reagent to each well. 7. Incubate 1 hour at room temperature (keep plates stored in the dark). 8. Read plates on Envision (PerkinElmer) luminesence plate reader and analyze using ADA.

Question: `CCC(c1ccc(C(F)(F)F)cc1)(C(C)O)n1ccc2c(NS(C)(=O)=O)cccc21` (single isomer, unassigned) [Compound 114, N-(1-(2-hydroxy-3-(4-(trifluoromethyl)phenyl)pentan-3-yl)-1H-indol-4-yl)methanesulfonamide] was tested. Which IC50 did it give?
Answer: < 100 nM

Question: With `C=CCC(C(=O)OC)(c1ccc(Cl)cc1)n1ccc2c(NS(C)(=O)=O)cccc21` (stereo not drawn) [Compound 33, Methyl 2-(4-chlorophenyl)-2-{4-[(methylsulfonyl)amino]-1H-indol-1-yl}pent-4-enoate] as the compound, how does the IC50 read?
Answer: 100 to 500 nM

Question: Which IC50 does the source give for `CCC(C(=O)OC)(c1ccc(Cl)cc1)n1ncc2c(NS(C)(=O)=O)cccc21` (stereo not drawn) [Compound 32, Methyl 2-(4-chlorophenyl)-2-{4-[(methylsulfonyl)amino]-1H-indazol-1-yl}butanoate] here?
Answer: 100 to 500 nM

Question: With `CCC(c1ccc(C(F)(F)F)cc1)(n1ncc2c(NS(C)(=O)=O)cccc21)C(C)(C)O` (single isomer, unassigned) [Compound 93, N-(1-(2-hydroxy-2-methyl-3-(4-(trifluoromethyl)phenyl)pentan-3-yl)-1H-indazol-4-yl)methane sulfonamide] as the compound, how does the IC50 read?
Answer: < 100 nM

Question: For `CCC(C#N)(c1ccc(Cl)cc1)n1ccc2c(NS(=O)(=O)CC)cccc21` (stereo not drawn) [Compound 178, N-(1-(1-(4-chlorophenyl)-1-cyanopropyl)-1H-indol-4-yl)ethanesulfonamide], which IC50 is on record?
Answer: 100 to 500 nM

Question: For `COC(=O)C(C)(c1ccc(Cl)cc1Cl)n1ccc2c(NS(C)(=O)=O)cccc21` (stereo not drawn) [Compound 29, Methyl 2-(2,4-dichlorophenyl)-2-{4-[(methylsulfonyl)amino]-1H-indol-1-yl}propanoate], which IC50 is on record?
Answer: 500 to 5000 nM

Question: With `CCC(c1ccc(Cl)cc1)(C(C)O)n1ccc2c(NS(C)(=O)=O)cc(F)cc21` (single isomer, unassigned) [Compound 111, N-(1-(3-(4-chlorophenyl)-2-hydroxypentan-3-yl)-6-fluoro-1H-indol-4-yl)methanesulfonamide] as the compound, how does the IC50 read?
Answer: < 100 nM

Question: `CCC(CC#N)(c1ccc(Cl)cc1)n1ccc2c(NS(C)(=O)=O)cc(F)cc21` (single isomer, unassigned) [Compound 124, N-(1-(2-(4-chlorophenyl)-1-cyanobutan-2-yl)-6-fluoro-1H-indol-4-yl)methanesulfonamide] was tested. Which IC50 did it give?
Answer: 100 to 500 nM

Question: For `CCC(c1ccc(Cl)cc1)(C(C)O)n1ncc2c(NS(=O)(=O)N(C)C)cccc21` (stereo not drawn) [Compound 119, 3-(1-(3-(4-chlorophenyl)-2-hydroxypentan-3-yl)-1H-indazol-4-yl)-1,1-dimethyl-sulfonylurea], which IC50 is on record?
Answer: < 100 nM

Question: How did the IC50 turn out when `CCC(c1ccc(Cl)cc1)(c1nc(-c2ccccc2)co1)n1ccc2c(NS(C)(=O)=O)cccc21` (stereo not drawn) [Compound 77, N-{1-[1-(4-chlorophenyl)-1-(4-phenyl-1,3-oxazol-2-yl)propyl]-1H-indol-4-yl}methanesulfonamide] was run?
Answer: 500 to 5000 nM

Question: How did the IC50 turn out when `CCC(/C=C/C#N)(c1ccc(Cl)cc1)n1ncc2c(NS(C)(=O)=O)cc(F)cc21` (stereo not drawn) [Compound 130, (E)-N-(1-(3-(4-chlorophenyl)-1-cyanopent-1-en-3-yl)-6-fluoro-1H-indazol-4-yl)methanesulfonamide] was run?
Answer: < 100 nM

Question: For `CCC(c1ccc(Cl)cc1)(c1nc(C#N)no1)n1ncc2c(NS(C)(=O)=O)cccc21` (stereo not drawn) [Compound 158, N-(1-(1-(4-chlorophenyl)-1-(3-cyano-1,2,4-oxadiazol-5-yl)propyl)-1H-indazol-4-yl)methane sulfonamide], which IC50 is on record?
Answer: < 100 nM

Question: `CCC(c1ccc(Cl)cc1)(n1ccc2c(NS(C)(=O)=O)cc(F)cc21)C(C)(C)O` (single isomer, unassigned) [Compound 90, N-(1-(3-(4-chlorophenyl)-2-hydroxy-2-methylpentan-3-yl)-6-fluoro-1H-indol-4-yl)methane sulfonamide] was tested. Which IC50 did it give?
Answer: < 100 nM

Question: With “N-(6-fluoro-1-(2-hydroxy-3-(4-(trfluoromethyl)phenyl)pentan-3-yl)-1H-indazol-4-yl)methanesulfonamide [Compound 112]” as the compound, how does the IC50 read?
Answer: < 100 nM

Question: How did the IC50 turn out when `CCC(/C=C/C#N)(c1ccc(Cl)cc1)n1ncc2c(N)cc(F)cc21` (stereo not drawn) [Compound 134, (E)-4-(4-amino-6-fluoro-1H-indazol-1-yl)-4-(4-chlorophenyl)hex-2-enenitrile] was run?
Answer: 100 to 500 nM

Question: Which IC50 does the source give for `CCC(c1ccc(Cl)cc1)(C(C)N)n1ccc2c(NS(C)(=O)=O)cccc21` (single isomer, unassigned) [Compound 176, N-(1-(2-amino-3-(4-chlorophenyl)pentan-3-yl)-1H-indol-4-yl)methanesulfonamide] here?
Answer: < 100 nM

Question: With `CC[C@@](c1ccc(Cl)cc1)(c1noc(-c2ccc(OC)cc2)n1)n1ccc2c(NS(C)(=O)=O)cccc21` [Compound 61, (R)—N-(1-{1-(4-chlorophenyl)-1-[5-(4-methoxyphenyl)-1,2,4-oxadiazol-3-yl]propyl}-1H-indol-4-yl)methanesulfonamide] as the compound, how does the IC50 read?
Answer: < 100 nM

Question: With `COC(=O)C(c1ccc(F)cc1Cl)n1ccc2cc(Cl)ccc21` (stereo not drawn) [Compound 12, methyl (2-chloro-4-fluorophenyl)(5-chloro-1H-indol-1-yl)acetate] as the compound, how does the IC50 read?
Answer: 500 to 5000 nM

Question: With `CC[C@](C(=O)NC1CC1)(c1ccc(Cl)cc1)n1ccc2c(NS(C)(=O)=O)cccc21` [Compound 41, (R)-2-(4-chlorophenyl)-N-cyclopropyl-2-{4-[(methylsulfonyl)amino]-1H-indol-1-yl}butanamide] as the compound, how does the IC50 read?
Answer: 100 to 500 nM

Question: Which IC50 does the source give for `CCC(CCO)(c1ccc(Cl)cc1)n1ccc2c(NS(C)(=O)=O)cccc21` (single isomer, unassigned) [Compound 160, N-(1-(3-(4-Chlorophenyl)-1-hydroxypentan-3-yl)-1H-indol-4-yl)methanesulfonamide] here?
Answer: < 100 nM

Question: Which IC50 does the source give for `CCC(CC#N)(c1ccc(Cl)cc1)n1ccc2c(NS(C)(=O)=O)cc(F)cc21` (single isomer, unassigned) [Compound 125, N-(1-(2-(4-chlorophenyl)-1-cyanobutan-2-yl)-6-fluoro-1H-indol-4-yl)methanesulfonamide] here?
Answer: < 100 nM

Question: How did the IC50 turn out when `CC(C)(C)OC(=O)C(CC#N)(c1ccc(Cl)cc1)n1ccc2c(NS(C)(=O)=O)cccc21` (stereo not drawn) [Compound 27, tert-Butyl 2-(4-chlorophenyl)-3-cyano-2-{4-[(methylsulfonyl)amino]-1H-indol-1-yl}propanoate] was run?
Answer: 100 to 500 nM

Question: Which IC50 does the source give for `C=CC(CC)(c1ccc(Cl)cc1)n1ccc2c(NS(C)(=O)=O)cccc21` (stereo not drawn) [Compound 175, N-(1-(3-(4-chlorophenyl)pent-1-en-3-yl)-1H-indol-4-yl)methanesulfonamide] here?
Answer: 100 to 500 nM

Question: How did the IC50 turn out when `CNC(=O)C(CC1CC1)(c1ccc(Cl)cc1)n1ccc2c(NS(C)(=O)=O)cccc21` (stereo not drawn) [Compound 56, 2-(4-chlorophenyl)-3-cyclopropyl-N-methyl-2-{4-[(methylsulfonyl)amino]-1H-indol-1-yl}propanamide] was run?
Answer: 100 to 500 nM

Question: `CCC(c1ccc(Cl)cc1)(c1nc(C)no1)n1ccc2c(NS(C)(=O)=O)cccc21` (single isomer, unassigned) [Compound 150, N-(1-(1-(4-chlorophenyl)-1-(3-methyl-1,2,4-oxadiazol-5-yl)propyl)-1H-indol-4-yl)methanesulfonamide] was tested. Which IC50 did it give?
Answer: < 100 nM

Question: For `CCC(C(=O)NCCF)(c1ccc(Cl)cc1)n1ccc2c(NS(C)(=O)=O)cccc21` (stereo not drawn) [Compound 49, 2-(4-chlorophenyl)-N-(2-fluoroethyl)-2-{4-[(methylsulfonyl)amino]-1H-indol-1-yl}butanamide], which IC50 is on record?
Answer: 100 to 500 nM

Question: `COC(=O)C(c1ccc(F)cc1Cl)n1ccc2ccc(Cl)cc21` (stereo not drawn) [Compound 14, methyl (2-chloro-4-fluorophenyl)(6-chloro-1H-indol-1-yl)acetate] was tested. Which IC50 did it give?
Answer: 500 to 5000 nM
